Values quoted from earlier work, collected in patent publication US7658956B2, “Erectile dysfunction phyto-nutraceutical synergistic composition” (priority 2006, dated 2010).

Columns and labels:
[1] = system: bacterial resistance mechanism (multidrug pump)
[2] = system: patients with erectile dysfunction; conditions: 30 patients per group
spermatozoa = conditions: in vitro

## COc1cc([C@H]2Oc3cc(-c4cc(=O)c5c(O)cc(O)cc5o4)cc(OC)c3O[C@@H]2CO)ccc1O (racemic) [5′-MHC, 5′-methoxyhydnocarpin]
[1]; in the presence of 5′-MHC
  accumulation of berberine in the cells: strong increase
[1]; in vitro
  activity of herbal Berberine alkaloids under the action of 5′-MHC: strongly potentiated

## O=c1n(CCCN2CCN(c3cccc(Cl)c3)CC2)nc2ccccn12 [trazodone]
[2]
  overall therapeutic efficacies on erectile dysfunction: 30%

## C[C@H](CC[C@@]1(O)O[C@H]2C[C@H]3[C@@H]4CC=C5C[C@@H](O[C@@H]6O[C@H](CO)[C@@H](O[C@@H]7O[C@@H](C)[C@H](O)[C@@H](O)[C@H]7O)[C@H](O)[C@H]6O[C@@H]6O[C@@H](C)[C@H](O)[C@@H](O)[C@H]6O)CC[C@]5(C)[C@H]4CC[C@]3(C)[C@H]2[C@@H]1C)CO[C@@H]1O[C@H](CO)[C@@H](O)[C@H](O)[C@H]1O [Protodioscin]
Rabbit corpus cavernosum
  pro-erectile activity (relaxant effect): pro-erectile activity

## Vitamin E
Asthenospermic patients; Eleven out of 52 treated patients
  treated patients who impregnated their spouses: 21%
Asthenospermic patients; oral, asthenospermic patients
  MDA concentration in spermatozoa: significantly decreased
  sperm motility: improved sperm motility
spermatozoa
  ROS mediated damage on spermatozoa: protects against ROS mediated damage
